# Results: publication PMC4490784, “Compensatory induction of MYC expression by sustained CDK9 inhibition via a BRD4-dependent mechanism” (eLife, 2015)
# Assays:
# ROCK2 = target: T1, ROCK2 (Homo sapiens, UniProt O75116); assay: biochemical binding or enzymatic assay; settings: Novartis
# T1 construct: purchased DiscoveRx KINOMEscan
# Procedure, shortened: (§1)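 First, non-CDK kinase selectivity was profiled on the KINOMEscan platform. Hits were then re-examined for concentration-dependent inhibition by i-CDK9, in enzymatic or binding format.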
# CLK1 = target: T2, CLK1 (Homo sapiens, UniProt P49759); assay: biochemical binding or enzymatic assay; settings: Invitrogen
# T2 construct: purchased DiscoveRx KINOMEscan
# Procedure, shortened: as §1
# PLK1 = target: T3, PLK1 (Homo sapiens, UniProt P53350); assay: biochemical binding or enzymatic assay; settings: Novartis
# T3 construct: purchased DiscoveRx KINOMEscan
# Procedure, shortened: as §1
# FYN = target: T4, FYN (Homo sapiens, UniProt P06241); assay: biochemical binding or enzymatic assay; settings: Novartis
# T4 construct: purchased DiscoveRx KINOMEscan
# Procedure, shortened: as §1
# SYK = target: T5, SYK (Homo sapiens, UniProt P43405); assay: biochemical binding or enzymatic assay; settings: Novartis
# T5 construct: purchased DiscoveRx KINOMEscan
# Procedure, shortened: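 Kinases flagged in a KINOMEscan selectivity screen were retested with i-CDK9 across a range of concentrations. Depending on the kinase, either a functional kinase activity assay or a binding assay was used.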
# [1] = target: T6, TYK2(JH1domain-catalytic) (Homo sapiens, UniProt P29597); assay: biochemical binding or enzymatic assay; settings: Novartis
# T6 construct: TYK2(JH1domain-catalytic)
# Procedure, shortened: as §1
# ERK1 = target: T7, ERK1 (Homo sapiens, UniProt P27361); assay: biochemical binding or enzymatic assay; settings: Novartis
# T7 construct: purchased DiscoveRx KINOMEscan
# Procedure, shortened: as §1
# LYN = target: T8, LYN (Homo sapiens, UniProt P07948); assay: biochemical binding or enzymatic assay; settings: Novartis
# T8 construct: purchased DiscoveRx KINOMEscan
# Procedure, shortened: as §1
# S6K1 = S6K1 (Homo sapiens, UniProt P23443); assay: biochemical binding or enzymatic assay; settings: Novartis
# Procedure, shortened: as §1
# EPHB4 = target: T9, EPHB4 (Homo sapiens, UniProt P54760); assay: biochemical binding or enzymatic assay; settings: Novartis
# T9 construct: purchased DiscoveRx KINOMEscan
# T9 sequence (P54760 16-987): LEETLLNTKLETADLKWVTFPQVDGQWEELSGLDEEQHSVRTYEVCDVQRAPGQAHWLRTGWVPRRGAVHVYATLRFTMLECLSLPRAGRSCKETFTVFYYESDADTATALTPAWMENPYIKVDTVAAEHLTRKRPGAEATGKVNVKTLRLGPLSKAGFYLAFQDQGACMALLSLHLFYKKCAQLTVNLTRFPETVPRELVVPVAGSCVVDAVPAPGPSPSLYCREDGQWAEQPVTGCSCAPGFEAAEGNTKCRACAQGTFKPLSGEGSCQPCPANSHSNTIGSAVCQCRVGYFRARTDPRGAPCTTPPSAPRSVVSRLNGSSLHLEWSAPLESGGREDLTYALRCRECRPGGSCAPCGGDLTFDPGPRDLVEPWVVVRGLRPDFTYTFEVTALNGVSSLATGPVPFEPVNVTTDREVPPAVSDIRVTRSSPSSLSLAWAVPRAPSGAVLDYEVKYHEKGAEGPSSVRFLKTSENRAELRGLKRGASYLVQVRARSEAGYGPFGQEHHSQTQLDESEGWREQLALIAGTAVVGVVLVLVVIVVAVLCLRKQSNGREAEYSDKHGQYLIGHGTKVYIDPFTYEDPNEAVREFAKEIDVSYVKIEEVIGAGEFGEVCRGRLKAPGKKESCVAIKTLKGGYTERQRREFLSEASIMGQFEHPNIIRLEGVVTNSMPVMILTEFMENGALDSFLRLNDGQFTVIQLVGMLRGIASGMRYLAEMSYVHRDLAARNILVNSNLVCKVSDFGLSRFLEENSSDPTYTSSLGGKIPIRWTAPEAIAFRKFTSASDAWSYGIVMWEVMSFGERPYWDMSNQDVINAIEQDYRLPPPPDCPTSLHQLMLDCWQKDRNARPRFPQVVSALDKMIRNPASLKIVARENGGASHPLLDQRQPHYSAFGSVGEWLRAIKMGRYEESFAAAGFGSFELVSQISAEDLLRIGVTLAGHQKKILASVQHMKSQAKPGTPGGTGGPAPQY
# Procedure, shortened: as §1
# [2] = target: JAK2(JH1domain-catalytic) (Homo sapiens, UniProt O60674); assay: biochemical binding or enzymatic assay; set-up: JAK2(JH1domain-catalytic); settings: Novartis
# Procedure: Finally, the selectivity profile of i-CDK9 toward other non-CDK kinases was also assessed using the KINOMEscan platform. […] Except for CLK4, for which no suitable assay was available, the rest of the kinases plus a selected group of others were re-examined for the concentration-dependent effect of i-CDK9 in either functional kinase assays or binding assays. […] Indeed, it has recently been reported that DYRK1A acts as a Pol II CTD Kinase at its target gene promoters ([Di Vona et al., 2015]).
# CDK9-CycT1 = CDK9-CycT1 (Homo sapiens, UniProt P50750); assay: In vitro kinase assay with CDK7tide, effect of BRD4 on response to i-CDK9; type: biochemical
# Procedure: The reactions were stopped by adding 60 mM EDTA plus 0.01% Tween 20. After the addition of AlphaScreen beads (PerkinElmer) and detection antibody (Cell Signaling Technology, #4735) followed by overnight incubation at room temperature, the plates were read on an Envision 2101 (PerkinElmer).
# [3] = target: T10, affinity-purified CDK12-F-CycK (Homo sapiens, UniProt Q9NYV4); assay: In vitro kinase reaction, GST-CTD substrate, pSer2 Western blotting; type: biochemical; settings: even at 80 nM
# T10 construct: made in house
# Procedure: (§2) Figure 1. i-CDK9 is a potent and selective CDK9 inhibitor that elicits cellular responses indicative of P-TEFb inhibition. (A and B) Structures and selectivity profiles of i-CDK9 (A) and falvopiridol (B). […] (C) In vitro kinase reactions containing affinity-purified CDK9-F-CycT or CDK12-F-CycK and GST-CTD as a substrate were conducted in the presence of the indicated concentrations of i-CDK9. pSer2 and the Flag-tagged kinase in each reaction were detected by Western blotting with anti-pSer2 and anti-Flag antibodies, respectively. (D) HeLa cells were treated for 8 hr with DMSO or the indicated concentrations of i-CDK9. Total cell lysates were examined by immunoblotting for the proteins labeled on the left. DOI: http://dx.doi.org/10.7554/eLife.06535.003 Figure 1—source data 1. Selectivity profile of i-CDK9. DOI: http://dx.doi.org/10.7554/eLife.06535.004 Figure 1—figure supplement 1. Recombinant CDK12-CycK is less sensitive to inhibition by i-CDK9.
# (§3) Among all members of the CDK super family, CDK12 deserves special attention because of its reported phosphorylation of the Pol II CTD on Ser2, an ability that is shared with CDK9 ([Bartkowiak et al., 2010]). […] Phosphorylation of Ser2 (pSer2) was detected by Western blotting with a specific antibody.
# [4] = target: T11, affinity-purified CDK9-F-CycT (Homo sapiens, UniProt P50750); assay: as above; type: biochemical; settings: read-out: estimated IC50 of Ser2 phosphorylation
# T11 construct: made in house; host or cells: probably the HeLa-based F1C2 cells
# Procedure: as §2, §3
# Sequence of CDK9-CycT1 (P50750 whole entry): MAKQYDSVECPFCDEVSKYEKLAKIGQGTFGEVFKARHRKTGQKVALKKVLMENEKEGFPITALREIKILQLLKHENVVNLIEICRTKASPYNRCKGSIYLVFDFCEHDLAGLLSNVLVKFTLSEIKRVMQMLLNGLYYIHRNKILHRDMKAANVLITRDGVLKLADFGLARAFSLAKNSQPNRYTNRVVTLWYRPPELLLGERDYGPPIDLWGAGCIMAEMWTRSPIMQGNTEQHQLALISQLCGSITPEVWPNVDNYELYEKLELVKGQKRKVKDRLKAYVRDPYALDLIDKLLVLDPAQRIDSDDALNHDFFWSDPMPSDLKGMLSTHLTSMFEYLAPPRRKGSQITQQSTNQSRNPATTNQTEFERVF
# Sequence of CDK9-CycT1 (O60563 whole entry partner): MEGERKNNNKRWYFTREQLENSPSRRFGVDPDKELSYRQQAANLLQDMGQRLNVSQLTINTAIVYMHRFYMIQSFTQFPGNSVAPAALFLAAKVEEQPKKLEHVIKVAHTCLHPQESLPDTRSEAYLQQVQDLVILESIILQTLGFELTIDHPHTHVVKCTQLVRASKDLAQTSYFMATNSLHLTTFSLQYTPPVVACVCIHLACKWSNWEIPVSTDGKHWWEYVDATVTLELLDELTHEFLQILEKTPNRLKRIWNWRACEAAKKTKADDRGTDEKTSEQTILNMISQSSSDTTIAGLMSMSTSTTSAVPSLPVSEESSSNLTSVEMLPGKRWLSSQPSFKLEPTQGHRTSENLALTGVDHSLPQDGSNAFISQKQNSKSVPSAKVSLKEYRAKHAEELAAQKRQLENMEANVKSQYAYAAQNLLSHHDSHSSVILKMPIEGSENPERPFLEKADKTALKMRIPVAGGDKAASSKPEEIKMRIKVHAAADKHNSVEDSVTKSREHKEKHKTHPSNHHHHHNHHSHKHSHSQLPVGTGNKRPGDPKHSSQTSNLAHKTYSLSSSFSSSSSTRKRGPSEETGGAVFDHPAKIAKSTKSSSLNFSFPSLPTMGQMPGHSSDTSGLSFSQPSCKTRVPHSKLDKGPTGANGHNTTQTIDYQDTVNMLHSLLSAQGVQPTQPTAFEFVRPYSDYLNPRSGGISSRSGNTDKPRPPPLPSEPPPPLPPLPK
# T10 sequence (Q9NYV4 whole entry): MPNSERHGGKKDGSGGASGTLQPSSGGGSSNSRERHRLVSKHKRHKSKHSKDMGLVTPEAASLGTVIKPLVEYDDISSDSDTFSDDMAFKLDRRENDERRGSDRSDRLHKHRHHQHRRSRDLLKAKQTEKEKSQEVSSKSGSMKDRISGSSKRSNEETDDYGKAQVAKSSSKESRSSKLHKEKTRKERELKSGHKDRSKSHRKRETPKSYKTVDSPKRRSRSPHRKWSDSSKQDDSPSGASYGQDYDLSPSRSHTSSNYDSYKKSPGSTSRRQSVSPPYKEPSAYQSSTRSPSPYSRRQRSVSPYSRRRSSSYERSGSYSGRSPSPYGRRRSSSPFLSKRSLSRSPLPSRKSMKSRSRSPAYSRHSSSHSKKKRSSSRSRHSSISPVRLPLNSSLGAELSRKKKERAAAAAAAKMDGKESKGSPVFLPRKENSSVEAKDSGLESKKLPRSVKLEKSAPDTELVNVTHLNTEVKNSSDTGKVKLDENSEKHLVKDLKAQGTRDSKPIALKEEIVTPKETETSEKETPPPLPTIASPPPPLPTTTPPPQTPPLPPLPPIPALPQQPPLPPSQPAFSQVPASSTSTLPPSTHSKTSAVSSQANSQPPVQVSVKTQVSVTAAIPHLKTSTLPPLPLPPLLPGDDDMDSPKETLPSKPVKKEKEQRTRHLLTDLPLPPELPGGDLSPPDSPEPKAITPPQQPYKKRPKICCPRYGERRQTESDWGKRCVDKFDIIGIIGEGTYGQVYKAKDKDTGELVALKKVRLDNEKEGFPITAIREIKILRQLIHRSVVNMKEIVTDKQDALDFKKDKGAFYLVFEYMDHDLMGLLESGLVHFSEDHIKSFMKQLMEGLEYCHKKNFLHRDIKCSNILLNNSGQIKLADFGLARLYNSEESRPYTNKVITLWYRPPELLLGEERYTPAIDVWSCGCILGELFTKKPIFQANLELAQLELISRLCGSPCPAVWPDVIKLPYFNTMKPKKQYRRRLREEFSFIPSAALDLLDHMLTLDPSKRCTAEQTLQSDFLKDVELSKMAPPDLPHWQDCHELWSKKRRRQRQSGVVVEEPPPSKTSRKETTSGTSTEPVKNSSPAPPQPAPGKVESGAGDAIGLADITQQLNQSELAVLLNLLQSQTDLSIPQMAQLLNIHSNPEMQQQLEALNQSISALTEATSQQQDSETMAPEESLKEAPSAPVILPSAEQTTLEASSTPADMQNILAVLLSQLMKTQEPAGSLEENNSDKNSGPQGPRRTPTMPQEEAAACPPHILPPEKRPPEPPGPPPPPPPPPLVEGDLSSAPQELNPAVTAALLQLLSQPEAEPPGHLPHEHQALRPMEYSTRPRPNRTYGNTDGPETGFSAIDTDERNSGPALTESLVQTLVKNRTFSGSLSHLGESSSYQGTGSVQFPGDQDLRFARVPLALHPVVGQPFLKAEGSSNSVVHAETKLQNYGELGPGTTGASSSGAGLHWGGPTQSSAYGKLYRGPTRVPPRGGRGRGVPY
# T10 sequence (O75909 whole entry partner): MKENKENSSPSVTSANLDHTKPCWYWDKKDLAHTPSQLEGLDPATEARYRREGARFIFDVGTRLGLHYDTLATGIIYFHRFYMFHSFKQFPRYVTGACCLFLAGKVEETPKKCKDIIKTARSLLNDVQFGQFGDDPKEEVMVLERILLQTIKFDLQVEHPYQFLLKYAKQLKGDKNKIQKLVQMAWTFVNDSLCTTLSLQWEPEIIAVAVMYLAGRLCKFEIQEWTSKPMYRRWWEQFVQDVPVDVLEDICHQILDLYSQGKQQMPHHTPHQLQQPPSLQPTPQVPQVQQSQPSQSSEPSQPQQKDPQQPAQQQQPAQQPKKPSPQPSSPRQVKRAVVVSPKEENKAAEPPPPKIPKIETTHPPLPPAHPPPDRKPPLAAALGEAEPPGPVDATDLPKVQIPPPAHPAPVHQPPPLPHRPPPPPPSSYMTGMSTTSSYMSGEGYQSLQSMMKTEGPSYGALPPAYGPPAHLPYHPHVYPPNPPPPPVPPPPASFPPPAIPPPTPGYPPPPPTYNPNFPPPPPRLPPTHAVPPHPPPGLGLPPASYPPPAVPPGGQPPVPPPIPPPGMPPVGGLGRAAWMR
# T7 sequence (P27361 whole entry): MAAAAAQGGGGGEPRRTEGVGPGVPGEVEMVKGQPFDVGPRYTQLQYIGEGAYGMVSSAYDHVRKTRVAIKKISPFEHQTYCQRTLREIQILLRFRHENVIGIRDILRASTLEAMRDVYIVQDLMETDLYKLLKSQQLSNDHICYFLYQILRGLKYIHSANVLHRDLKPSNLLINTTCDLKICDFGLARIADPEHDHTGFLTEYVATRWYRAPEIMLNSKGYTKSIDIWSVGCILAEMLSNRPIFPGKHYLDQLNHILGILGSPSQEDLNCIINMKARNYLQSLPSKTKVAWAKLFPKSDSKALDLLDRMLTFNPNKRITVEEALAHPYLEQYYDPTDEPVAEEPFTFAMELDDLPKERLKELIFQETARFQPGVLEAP
# T11 sequence (P50750 whole entry): as the sequence (P50750 whole entry) above
# T11 sequence (O60563 whole entry partner): as the sequence (O60563 whole entry partner) above
# T3 sequence (P53350 whole entry): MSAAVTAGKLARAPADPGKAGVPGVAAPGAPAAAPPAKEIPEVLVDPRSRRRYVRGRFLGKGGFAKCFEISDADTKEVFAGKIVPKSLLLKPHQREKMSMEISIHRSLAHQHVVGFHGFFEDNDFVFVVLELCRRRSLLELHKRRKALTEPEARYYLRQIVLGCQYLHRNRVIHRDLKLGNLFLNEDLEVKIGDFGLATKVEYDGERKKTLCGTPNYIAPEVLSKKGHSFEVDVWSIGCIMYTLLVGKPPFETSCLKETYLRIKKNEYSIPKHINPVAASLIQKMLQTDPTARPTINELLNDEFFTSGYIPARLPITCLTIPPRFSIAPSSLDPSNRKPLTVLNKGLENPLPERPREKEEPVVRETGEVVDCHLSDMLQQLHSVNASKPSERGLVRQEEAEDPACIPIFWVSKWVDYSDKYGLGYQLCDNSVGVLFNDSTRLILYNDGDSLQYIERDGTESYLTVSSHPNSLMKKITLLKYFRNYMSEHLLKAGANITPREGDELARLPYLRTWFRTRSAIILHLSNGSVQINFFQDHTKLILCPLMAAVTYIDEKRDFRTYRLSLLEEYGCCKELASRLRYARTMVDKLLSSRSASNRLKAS
# T8 sequence (P07948 whole entry): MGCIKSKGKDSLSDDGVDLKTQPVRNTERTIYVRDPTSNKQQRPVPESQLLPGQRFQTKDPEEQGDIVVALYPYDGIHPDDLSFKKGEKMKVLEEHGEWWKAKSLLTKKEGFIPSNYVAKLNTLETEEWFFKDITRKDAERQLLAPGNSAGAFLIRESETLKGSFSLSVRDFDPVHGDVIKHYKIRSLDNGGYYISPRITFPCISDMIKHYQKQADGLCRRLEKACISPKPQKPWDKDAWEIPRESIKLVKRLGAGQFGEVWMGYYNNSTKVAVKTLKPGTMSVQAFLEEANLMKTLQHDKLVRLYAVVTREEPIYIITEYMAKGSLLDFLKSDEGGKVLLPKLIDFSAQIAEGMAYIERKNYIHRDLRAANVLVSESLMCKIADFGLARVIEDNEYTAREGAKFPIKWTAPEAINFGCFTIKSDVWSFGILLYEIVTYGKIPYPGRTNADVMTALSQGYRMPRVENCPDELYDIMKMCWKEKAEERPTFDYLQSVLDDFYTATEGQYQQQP
# Sequence of JAK2(JH1domain-catalytic) (O60674 849-1124 limits assumed): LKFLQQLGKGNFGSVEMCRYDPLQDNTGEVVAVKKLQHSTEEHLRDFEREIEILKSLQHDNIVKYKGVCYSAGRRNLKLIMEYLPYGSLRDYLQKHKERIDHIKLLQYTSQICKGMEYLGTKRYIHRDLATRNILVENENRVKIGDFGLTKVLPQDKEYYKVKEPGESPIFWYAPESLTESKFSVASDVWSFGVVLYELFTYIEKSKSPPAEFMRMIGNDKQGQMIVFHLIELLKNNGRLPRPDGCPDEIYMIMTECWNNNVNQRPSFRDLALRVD
structure (smiles),measurement,setting,value
"N[C@H]1CC[C@H](Nc2cc(-c3cccc(NCc4cccc(F)c4)n3)c(Cl)cn2)CC1 [i-CDK9, N2′-(trans-4-aminocyclohexyl)-5′-chloro-N6-(3-fluorobenzyl)-2,4′-bipyridine-2′,6-diamine]",IC50,ROCK2,> 10 µM
same,IC50,CLK1,525 nM
same,IC50,PLK1,> 10 µM
same,IC50,FYN,> 10 µM
same,IC50,SYK,> 10 µM
same,IC50,[1],> 10 µM
same,IC50,ERK1,> 10 µM
same,IC50,LYN,> 10 µM
same,IC50,S6K1,> 10 µM
same,IC50,EPHB4,> 10 µM
same,IC50,[2],> 10 µM
same,IC50,CDK9-CycT1; CDK9/CycT1 + WT BRD4,14.7 ± 2.1 nM
same,IC50,CDK9-CycT1; CDK9/CycT1 + ΔPID BRD4,7.2 ± 0.6 nM
same,IC50,"CDK9-CycT1; CDK9/CycT1, absence of BRD4",4.4 ± 0.7 nM
same,inhibition of Ser2 phosphorylation,[3],no obvious inhibition
same,IC50,[4],~2 nM
